Usually CC50 stands for the concentration at which the toxic effect on the cells reaches its halfway point. The EC50 is the concentration needed to bring the measured effect to its halfway point.

The text below walks through data of patent publication US12678446B2 (PFIZER INC., priority 2020, dated 2026).

One series in a line: cell toxicity CC50. It is filed as cell-based. The settings on record: human; Hep-G2 cells; mean of at least two experiments; read-out: Cell Cytotoxicity CC50.
The subject of series [1] is RSV (RSV A2 ECACC, 0709161v). As to the kind of experiment: RSV plaque reduction assay. It is filed as cell-based, respiratory syncytial virus. The settings on record: human respiratory syncytial virus, HepG2, read-out: RSV A2 Plaque EC50, RSV A2 in Hep-G2 cells; mean of at least two experiments unless noted (n = 1). In short, it runs like this: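 Eight-point compound dilutions were premixed with RSV A2 (100 PFU/well) and applied to confluent Hep-G2 cells for 2 h, followed by a 2-day incubation at 37° C. under compound-containing 0.8% CMC overlay. EC50 comes from immunostained plaque counts relative to untreated virus wells, averaged over ≥2 runs.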
In general terms: In a plaque reduction assay, fewer plaques than in the control indicate reduced infectivity or spread.

Take `CCNc1ccc(-c2nn3c(c2C(=O)N[C@H]2N=C(c4ccccc4)c4cccc(F)c4NC2=O)OCCC3)cn1` [Example 20, 2-[6-(Ethylamino)pyridin-3-yl]-N-[(3S)-9-fluoro-2-oxo-5-phenyl-1,3-dihydro-1,4-benzodiazepin-3-yl]-6,7-dihydro-5H-pyrazolo[5,1-b][1,3]oxazine-3-carboxamide]: in “cell toxicity CC50”, the CC50 is above 25000 nM. Further, the concentration for a half-maximal effect (EC50) in series [1] amounted to 42 nM.

For the molecule `O=C(N[C@H]1N=C(c2ccccc2)c2cccc(F)c2NC1=O)c1c(-c2ccccc2F)nn2c1OCC(CO)C2` (single isomer, unassigned) [Example 110-1, (6R*)-N-[(3S)-9-fluoro-2-oxo-5-phenyl-1,3-dihydro-1,4-benzodiazepin-3-yl]-2-(2-fluorophenyl)-6-(hydroxymethyl)-6,7-dihydro-5H-pyrazolo[5,1-b][1,3]oxazine-3-carboxamide], in the series “cell toxicity CC50”, the CC50 was above 25000 nM. In series [1], the EC50 came out at 42 nM.

With `CC(C)Nc1ccc(-c2nn3c(c2C(=O)N[C@H]2N=C(c4ccccc4)c4cccc(F)c4NC2=O)O[C@@H](C)CC3)cn1` [Example 69], in “cell toxicity CC50”, the CC50 was above 25000 nM. In addition, in series [1], the EC50 was 34 nM.

For the molecule `O=C(N[C@H]1N=C(c2ccccc2)c2cccc(F)c2NC1=O)c1c(-c2ccccc2F)nn2c1OCCC2` [Example 21, N-[(3S)-9-fluoro-2-oxo-5-phenyl-1,3-dihydro-1,4-benzodiazepin-3-yl]-2-(2-fluorophenyl)-6,7-dihydro-5H-pyrazolo[5,1-b][1,3]oxazine-3-carboxamide], the CC50 in the series “cell toxicity CC50” was above 25000 nM. In series [1], the EC50 is 64 nM.

Turning to `O=C(N[C@H]1N=C(c2ccccc2)c2cccc(F)c2NC1=O)c1c(-c2ccccc2F)nn2c1OC(CN1CCOCC1)CC2` (stereo partly drawn) [Example 167, N-[(3S)-9-fluoro-2-oxo-5-phenyl-1,3-dihydro-1,4-benzodiazepin-3-yl]-2-(2-fluorophenyl)-5-(morpholin-4-ylmethyl)-6,7-dihydro-5H-pyrazolo[5,1-b][1,3]oxazine-3-carboxamide], the CC50 in the series “cell toxicity CC50” was above 25000 nM. For the same molecule, the EC50 in series [1] was 91 nM.

Consider `Cc1cccc(F)c1-c1nn2c(c1C(=O)N[C@H]1N=C(c3ccccc3)c3cccc(F)c3NC1=O)OCCC2` [Example 140, 2-(2-Fluoro-6-methylphenyl)-N-[(3S)-9-fluoro-2-oxo-5-phenyl-1,3-dihydro-1,4-benzodiazepin-3-yl]-6,7-dihydro-5H-pyrazolo[5,1-b][1,3]oxazine-3-carboxamide], for which the CC50 in the series “cell toxicity CC50” was above 25000 nM. Also, in series [1], the EC50 stood at 38 nM.

With `CS(=N)(=O)c1ccc(-c2nn3c(c2C(=O)N[C@H]2N=C(c4ccccc4)c4cccc(F)c4NC2=O)OCCC3)c(F)c1` (stereo partly drawn) [Example 143, 2-[2-Fluoro-4-(methylsulfonimidoyl)phenyl]-N-[(3S)-9-fluoro-2-oxo-5-phenyl-1,3-dihydro-1,4-benzodiazepin-3-yl]-6,7-dihydro-5H-pyrazolo[5,1-b][1,3]oxazine-3-carboxamide], the CC50 in the series “cell toxicity CC50” was above 25000 nM. Further, the EC50 in series [1] came to 149 nM.

Turning to `CC1CCn2nc(-c3ccc(N4C[C@@H]5C[C@H]4CO5)nc3)c(C(=O)NC3N=C(c4ccccc4)c4cccc(F)c4NC3=O)c2O1` (stereo in doubt) [Example 87, (5S)-5-Methyl-N-[(3R)-9-fluoro-2-oxo-5-phenyl-1,3-dihydro-1,4-benzodiazepin-3-yl]-2-[6-[(1S,4S)-2-oxa-5-azabicyclo[2.2.1]heptan-5-yl]pyridin-3-yl]-6,7-dihydro-5H-pyrazolo[5,1-b][1,3]oxazine-3-carboxamide], the CC50 in the series “cell toxicity CC50” is above 25000 nM. Further, the half-maximal effective concentration (EC50) in series [1] worked out at 179 nM.

Regarding `CS(=O)(=O)c1ccc(-c2nn3c(c2C(=O)N[C@H]2N=C(c4ccccc4)c4cccc(F)c4NC2=O)OCCC3)c(F)c1` [Example 135, 2-(2-Fluoro-4-methylsulfonylphenyl)-N-[(3S)-9-fluoro-2-oxo-5-phenyl-1,3-dihydro-1,4-benzodiazepin-3-yl]-6,7-dihydro-5H-pyrazolo[5,1-b][1,3]oxazine-3-carboxamide], the CC50 in “cell toxicity CC50” was above 25000 nM. In addition, the EC50 in series [1] came to 15 nM.
